Data published in BindingDB's records for doi:10.3109/14756366.2012.753591 (Gyeongsang National University, 2014).

Columns and labels:
Replicase polyprotein 1a = Replicase polyprotein 1a (Severe acute respiratory syndrome coronavirus, UniProt P0C6U8); test: SARS-CoV PLpro Inhibition Assay; conditions: pH 8
Experimental: (§1) Reactions were performed in a total volume of […], which contained thefollowing components: 20mM Tris-buffer, pH 8.0, 10mM DTT, […], 2% DMSO and varying concentrations of inhibitor ([…]). Assays were initiated with the addition of PLpro to produce a final enzyme concentration of 60 nM.

[1] = molecular target: Replicase polyprotein 1a/Z-RLRGG-AMC (Severe acute respiratory syndrome coronavirus, UniProt P0C6U8); test: SARS-CoV PLpro Inhibition Assay; conditions: pH 8
Experimental: as §1

| SMILES | IC50 (Replicase polyprotein 1a) | Ki (Replicase polyprotein 1a) | Ki [1] |
| --- | --- | --- | --- |
| O=c1ccc2ccc3occc3c2o1 [2H-furo[2,3-h]chromen-2-one] | > 150 µM | – | – |
| COc1cc(O)c(C(=O)/C=C/c2ccc(O)cc2)cc1CC=C(C)C [4'-O-methylbavachalcone (4)] | 10.1 µM | 4.6 µM | – |
| O=c1ccc2cc3ccoc3cc2o1 [7H-furo[3,2-g]chromen-7-one] | > 150 µM | – | – |
| COc1cc2c(cc1CC=C(C)C)C(=O)CC(c1ccc(O)cc1)O2 (stereo unspecified) [Bavachinin (1)] | 38.4 µM | 18.4 µM | – |
| CC(C)=CCC/C(C)=C\Cc1cc(-c2coc3cc(O)ccc3c2=O)ccc1O [Corylifol A (6)] | 32.3 µM | 11.4 µM | – |
| CC(C)=CCc1c(O)ccc(C(=O)/C=C/c2ccc(O)cc2)c1O [Isobacachalcone] | 7.3 µM | 4.9 µM | 9.1 µM |
| CC(C)=CCc1cc(-c2coc3cc(O)ccc3c2=O)ccc1O [Neobavaisoflavone (2)] | 18.3 µM | 9.4 µM | – |
| CC(C)=CCc1cc2c(cc1O)oc(=O)c1c3ccc(O)cc3oc21 [Psoralidin (5)] | 4.2 µM | 1.7 µM | 4.2 µM |
